As usually defined, the Tm is the temperature at the midpoint of the melting transition.

Results on 5 substances are retold here after patent US6844151B1, “Methods for production of arrays with modified oligonucleotide and polynucleotide compositions” (Oligos Etc. Inc., priority 1999, dated 2005).

[pOEt] = p-ethoxy (ethyl phosphotriester) internucleotide linkage

Data set [1] has as its system Regular RNA 20-mer oligonucleotide SEQ ID NO:1. The data set can be described thus: Tm of 20-mer duplexes, modified SEQ ID NO:2 strand bound to Regular RNA SEQ ID NO:1. It is filed as binding. The settings on record: duplex with Regular RNA SEQ ID NO:1; 4 μM each; 50 mM NaCl, 10 mM PO4 buffer, pH 7.4. As to the method:
(§1) The stability of duplexes having 2′-substituted nucleotides versus duplexes without such modification was tested by examining the Tm of these complexes. 4 μM each of 20-mer oligonucleotide (5′-ggt ggt tcc tcc tca gtc gg-3′; SEQ ID NO:1) and its complement (5′- ccg act gag aag gaa cca cc-3;SEQ ID NO:2) were bound in a solution of 50 mM NaCl, 10 mM PO4 buffer, pH 7.4. Each of the nucleotides of the oligonucleotide had the same 2′ group. Following binding, the melting temperature was determined as described. (See L. L. Cummins et al., Nucleic Acids Research 23:2019-2024 (1995).

The test system of data set [2] is Regular DNA 20-mer oligonucleotide SEQ ID NO:1. The data set can be described thus: Tm of 20-mer duplexes, modified SEQ ID NO:2 strand bound to Regular DNA SEQ ID NO:1. It is filed as binding. The settings on record: duplex with Regular DNA SEQ ID NO:1; 4 μM each; 50 mM NaCl, 10 mM PO4 buffer, pH 7.4. As to the method: as §1

In the case of “2′-O-methyl: SEQ ID NO:2 20-mer, every nucleotide with 2′-O-methyl group (CCGACTGAGAAGGAACCACC; all 2'-O-methyl, backbone and T or U not given here)”, the Tm in data set [1] was 79 °C.

Regarding “Regular DNA: unmodified DNA 20-mer, SEQ ID NO:2 (5′-ccg act gag aag gaa cca cc-3′) (CCGACTGAGAAGGAACCACC; DNA, backbone not given here) [reference compound]”, the Tm in data set [1] is 66 °C.

Take “p-ethoxy 2′-O-methyl: SEQ ID NO:2 20-mer as p-ethoxy 2′-O-methyl (CCGACTGAGAAGGAACCACC; all 2'-O-methyl, all [pOEt], T or U not given here)”: the melting temperature (Tm) in data set [1] was 71 °C.

On to “p-ethoxy DNA: SEQ ID NO:2 20-mer as p-ethoxy DNA (CCGACTGAGAAGGAACCACC; DNA, all [pOEt], methylation of C not given here)”, for which, in data set [2], the Tm was determined as 55 °C.

Take “p-ethoxy RNA: SEQ ID NO:2 20-mer as p-ethoxy RNA (CCGACTGAGAAGGAACCACC; RNA, all [pOEt], T or U not given here)”: the Tm in data set [1] worked out at 56 °C.
